pIC50: −log10 of the molar value. Read-outs that look alike come from different tables or passages of the source. Marks after values point to notes of the source that are not given here.

The source of these data is paper PMC7949037, “The allosteric inhibition of glycine transporter 2 by bioactive lipid analgesics is controlled by penetration into a deep lipid cavity” (The Journal of Biological Chemistry, 2021).

Data set [1] addresses T1, human glycine transporter 2 (GlyT2 or SLC6A5) (Homo sapiens, UniProt Q9Y345).
T1 construct: expressed in transfected cells; host or cells: Xenopus laevis oocytes injected with cRNA
T1 sequence (Q9Y345 1-797): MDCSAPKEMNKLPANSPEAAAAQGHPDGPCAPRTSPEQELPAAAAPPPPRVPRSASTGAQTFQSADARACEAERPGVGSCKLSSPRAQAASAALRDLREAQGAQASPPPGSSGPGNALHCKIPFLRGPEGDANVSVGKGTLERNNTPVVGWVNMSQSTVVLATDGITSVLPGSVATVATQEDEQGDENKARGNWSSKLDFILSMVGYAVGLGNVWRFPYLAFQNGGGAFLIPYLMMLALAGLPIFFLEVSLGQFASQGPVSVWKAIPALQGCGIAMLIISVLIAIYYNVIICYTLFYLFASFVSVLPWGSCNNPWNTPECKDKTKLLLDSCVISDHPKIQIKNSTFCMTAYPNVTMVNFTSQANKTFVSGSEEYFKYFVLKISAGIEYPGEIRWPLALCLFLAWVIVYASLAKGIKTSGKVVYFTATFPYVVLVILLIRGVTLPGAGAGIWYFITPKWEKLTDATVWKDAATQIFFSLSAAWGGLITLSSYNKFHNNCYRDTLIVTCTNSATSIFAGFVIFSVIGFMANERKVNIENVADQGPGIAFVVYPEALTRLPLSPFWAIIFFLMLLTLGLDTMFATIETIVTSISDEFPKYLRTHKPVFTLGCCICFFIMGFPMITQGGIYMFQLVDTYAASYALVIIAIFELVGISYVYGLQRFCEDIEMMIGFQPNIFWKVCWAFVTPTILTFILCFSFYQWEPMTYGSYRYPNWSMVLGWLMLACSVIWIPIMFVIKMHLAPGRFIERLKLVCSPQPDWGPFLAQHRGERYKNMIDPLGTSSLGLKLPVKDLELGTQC
Kind of data set: Inhibition of glycine transport currents, two-electrode voltage clamp in oocytes expressing WT GlyT2. It is filed as cell-based. Conditions: for % Maximal inhibition / pIC50: GlyT2; for pIC50: 30 μM glycine, 95% confidence interval in brackets; for Fold less potent than the corresponding L-isomer: GlyT2 IC50, D-isomer versus L-isomer. How it is done:
All N-acyl amino acids were synthesized as previously described ([13]). See Supporting Information for full details. Stock solutions of 10 mg ml^−1 of N-acyl amino acids were dissolved in dimethyl sulfoxide and diluted in frog Ringer's solution (96 mM NaCl, 2 mM KCl, 1 mM MgCl2, 1.8 mM CaCl2, 5 mM Hepes, pH 7.5) to desired concentrations. Final solutions contained 0.0025% dimethyl sulfoxide, a concentration that had no effect on transporter or receptor function.
Human GlyT2a WT complementary DNA was subcloned into the plasmid oocyte transcription vector. The amplified GlyT2/plasmid oocyte transcription vector product was then transformed in Escherichia coli cells and subsequently purified using the PureLink Quick Plasmid Miniprep Kit (Invitrogen by Life Technologies) and sequenced by the Australian Genome Research Facility (Sydney, Australia). The purified plasmid DNA was linearized via the restriction enzyme, SpeI (New England Biolabs [Genesearch]) for GlyT2a. Complementary RNAs were synthesized using the mMESAGE mMACHINE T7 kit (Ambion).
All work involving the use of animals was performed in accordance with the Australian Code of Practice for the Care and Use of Animals for Scientific Purposes. […] Stage V oocytes were isolated from the lobe via digestion with 2 mg ml^−1 collagenase A (Boehringer) at 26 °C for 1 h, and 20 ng of cRNA encoding GlyT2 was injected into each oocyte cytoplasm (Drummond Nanoinject; Drummond Scientific Co). The oocytes were then stored in frog Ringer's solution (96 mM NaCl, 2 mM KCl, 1 mM MgCl2, 1.8 mM CaCl2, 5 mM Hepes, pH 7.5), which was supplemented with 2.5 mM sodium pyruvate, 0.5 mM theophylline, 50 μg/ml gentamicin and […] tetracycline. The oocytes were stored at 18 °C for 3 to 5 days, until transporter expression was adequate for measurement using the two-electrode voltage clamp technique. Adequate transporter expression was defined as a ≥30 nA current following application of the glycine EC50.
(§1) GlyT2 is electrogenic, allowing activation to be measured via the two-electrode voltage clamp technique. Oocytes were voltage clamped at −60 mV, and whole-cell currents generated by the substrate were recorded with a Geneclamp 500 amplifier (Axon Instruments), digitized by a Powerlab 2/20 chart recorder (ADInstruments). LabChart version 8 software (ADInstruments, Axon Instruments) was used to visualize and process current traces. Recordings were performed in frog Ringer's solution. Oocytes were placed in an oval-shaped bath with a volume of 0.3 ml, with laminar flow around the oocyte at a rate of 12 ml min^−1 under gravity feed.
(§2) Each of the synthesized acyl-lysine compounds were first tested for their inhibitory activity by coapplying the analogs with 30 μM glycine and assessing their ability to reduce glycine transport currents. Increasing concentrations of each acyl-lysine inhibitor were applied to generate concentration response curves, from which IC50 values and percent maximal inhibition values were calculated.
In general terms: Two-electrode voltage clamp holds a large cell at a set potential and records current.

For data set [2], the target named is T2, GlyT1 (Homo sapiens, UniProt P48067).
T2 construct: expressed in transfected cells
T2 sequence (P48067 1-706): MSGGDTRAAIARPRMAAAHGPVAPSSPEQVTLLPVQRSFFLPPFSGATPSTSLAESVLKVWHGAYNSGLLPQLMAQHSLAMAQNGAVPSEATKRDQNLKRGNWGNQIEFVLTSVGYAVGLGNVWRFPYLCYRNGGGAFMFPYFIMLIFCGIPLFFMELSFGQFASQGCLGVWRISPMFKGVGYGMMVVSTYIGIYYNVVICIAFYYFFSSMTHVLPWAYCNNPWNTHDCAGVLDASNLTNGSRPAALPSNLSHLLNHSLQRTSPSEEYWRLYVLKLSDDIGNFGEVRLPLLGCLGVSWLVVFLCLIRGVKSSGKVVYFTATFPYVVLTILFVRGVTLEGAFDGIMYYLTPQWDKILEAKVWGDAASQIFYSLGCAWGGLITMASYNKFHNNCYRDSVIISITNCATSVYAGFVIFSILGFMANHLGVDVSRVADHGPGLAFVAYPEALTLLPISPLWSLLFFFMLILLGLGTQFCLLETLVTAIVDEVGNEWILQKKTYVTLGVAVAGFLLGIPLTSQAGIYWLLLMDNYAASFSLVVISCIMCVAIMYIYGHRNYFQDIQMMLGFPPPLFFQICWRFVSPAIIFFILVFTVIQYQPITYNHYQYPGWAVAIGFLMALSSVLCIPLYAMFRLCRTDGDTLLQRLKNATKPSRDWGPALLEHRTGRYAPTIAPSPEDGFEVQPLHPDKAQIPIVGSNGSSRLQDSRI
Kind of data set: Selectivity test against GlyT1 transporter, two-electrode voltage clamp electrophysiology. It is filed as cell-based.
Excerpt: The lipid inhibitors described previously contain 18 carbon acyl tails with a cis-double bond in the Δ9 position (i.e., nine bonds from the amide linkage to the amino acid head group), and penetration of the lipid tails into the allosteric site appears to be a critical determinant of inhibitory activity. To investigate the effect of tail length on GlyT2 inhibitory activity, we synthesized D- and L-lysine–based inhibitors with truncated tails. Double bonds were maintained in the Δ9 position, and overall chain lengths were reduced to C16 or C14 (C16ω7-Lys and C14ω5-Lys, respectively). The chemical structures of these new lipids are shown in Figure 1, and their synthesis and characterization are described in the Supporting information section. Newly synthesized acyl lysine analogs were then tested against GlyT2 and also tested for selectivity by testing against the closely related GlyT1 transporter using two-electrode voltage clamp electrophysiology (see Table 1 for inhibitory data).
as §1, §2

Data set [3] addresses T1, human glycine transporter 2 (GlyT2 or SLC6A5). The note with it: cited from earlier work; for GlyT2 inhibitory activity in words: D-configuration head group.
For data set [4], the target named is T2, GlyT1. Also noted: method as in Mostyn et al., 2019 ([6]). The note with it: previously published data, ref Mostyn et al., 2019 ([6]), cited from earlier work.
Data set [5] relates to GlyT2 Y550L. Also noted: method as in PMID 31621581. The note with it: mutagenesis data; cited from earlier work.
Data set [6] deals with GlyT2 W563L. More on the design: method as in PMID 31621581. Conditions: mutagenesis data; cited from earlier work.
Data set [7] has as its system GlyT2. Conditions: most potent small molecule GlyT2 inhibitor to date, reference not given; cited from earlier work.
The conditions of data set [8]: cited from earlier work.
The conditions of data set [9]: cited from earlier work. This is another data set of the same source.
Data set [10] deals with rat model of neuropathic pain. Conditions: cited from earlier work.
Setting [11] is: L-Head group stereochemistry, previously published data, ref Mostyn et al., 2019 ([6]).
[12] abbreviates: D-Head group stereochemistry, previously published data, ref Mostyn et al., 2019 ([6]).

As usually defined, the pIC50 is the negative decadic logarithm of the IC50, by convention in mol/L. On to `CCCCCCC=CCCCCCCCC(=O)NC(CCCCN)C(=O)O` [C16ω7-L-Lys], for which, in [1] (L-Head group stereochemistry), the “% Maximal inhibition” value is recorded as 90.2 ± 2.1% and the pIC50 is 7.18. This compound also gave a negative logarithm of the IC50 (pIC50) in data set [2] (L-Head group stereochemistry) of under 5.52.

As to `CCCC/C=C\CCCCCCCC(=O)N[C@H](CCCCN)C(=O)O` [C14ω5-D-Lys], in [1] (D-Head group stereochemistry), the “% Maximal inhibition” value worked out at 79.7 ± 3.6% and the pIC50 is 5.86. In data set [2] (D-Head group stereochemistry), this compound had a pIC50 of under 5.52.

As to `CCCCCC/C=C\CCCCCCCC(=O)N[C@H](CCCCN)C(=O)O` [C16ω7-D-Lys], in [1] (D-Head group stereochemistry), the “% Maximal inhibition” value was 96.2 ± 2.1% and the pIC50 is 6.22. In addition, the “Fold reduced potency relative to C18ω9-D-Lys” value in data set [1] (GlyT2 IC50) came out at 12 fold. In addition, in [1], the “Fold less potent than the corresponding L-isomer” value is “ninefold”. In data set [2] (D-Head group stereochemistry), this compound showed a pIC50 of under 5.52.

As to `CCCCC=CCCCCCCCCCCCC(=O)NC(CCCCN)C(=O)O` [C18ω5-D-Lys], in data set [1] (D-Head group stereochemistry), the “% Maximal inhibition” value amounted to 87.6 ± 3.7% and the pIC50 was 7.19. The pIC50 in [2] (D-Head group stereochemistry) is under 5.52.

For `CCCCCCCCC=CCCCCCCCC(=O)NC(Cc1c[nH]c2ccccc12)C(=O)O` [C18ω9-L-Trp], in [3] (setting [11]), the “% Maximal inhibition” value was 86.2 ^a % and the pIC50 is 7.26. Further, the pIC50 in data set [4] (L-Head group stereochemistry) was under 5.00.

For `CCCCCCCC/C=C\CCCCCCCC(=O)N[C@@H](CCCCN)C(=O)O` [C18ω9-L-Lys, oleoyl-L-lysine], in [3] (setting [11]), the “% Maximal inhibition” value is 86.8 ^a % and the pIC50 was 7.59. For the same compound, in data set [4] (L-Head group stereochemistry), the pIC50 is under 5.52. Moreover, the “Inhibition of GlyT2 Y550L mutant” value in data set [5] is given as “not inhibited”. Further, the “Inhibition of GlyT2 W563L mutant” value in data set [6] is “not inhibited”.

Regarding `CCCCC=CCCCCCCCC(=O)NC(CCCCN)C(=O)O` [C14ω5-L-Lys], the “% Maximal inhibition” value in data set [1] (L-Head group stereochemistry) is on record as 96.2 ± 7.3%. Also, the pIC50 in data set [1] (L-Head group stereochemistry) is 6.15; in data set [2] (L-Head group stereochemistry) it was under 5.52.

With `CCC=CCCCCCCCCCCCC(=O)NC(CCCCN)C(=O)O` [C16ω3-L-Lys], in data set [1] (L-Head group stereochemistry), the “% Maximal inhibition” value was found to be 94.9 ± 1.6% and the negative logarithm of the IC50 (pIC50) was 7.97. Further, the pIC50 in data set [2] (L-Head group stereochemistry) is under 5.52.

Broadly, the IC50 is the concentration at which inhibition is half-maximal. On to `CCCCCCCCC=CCCCCCCCC(=O)NC(Cc1c[nH]c2ccccc12)C(=O)O` [C18ω9-D-Trp], for which the “% Maximal inhibition” value in data set [3] (setting [12]) is given as 14.2 ^a %. Moreover, in data set [3] (D-Head group stereochemistry, μM, previously published data, ref Mostyn et al., 2019 ([6])), the IC50 is over 10 µM. Moreover, the “GlyT2 inhibitory activity in words” value in data set [3] was “inactive”. Besides, the pIC50 in [4] (D-Head group stereochemistry) was under 5.00.

On to `CCC=CCCCCCCCCCCCC(=O)NC(CCCCN)C(=O)O` [C16ω3-D-Lys], for which the “% Maximal inhibition” value in data set [1] (D-Head group stereochemistry) came out at 91.8 ± 8.6%. Also, the pIC50 in data set [1] (D-Head group stereochemistry) was 6.16; in data set [2] (D-Head group stereochemistry), under 5.52. The “Fold less potent than the corresponding L-isomer” value in data set [1] is on record as 65 fold.

Consider `COc1cc(C(=O)NCC2(N(C)C)CCCC2)cc(OC)c1OCc1ccccc1` [ORG25543], for which, in data set [7], the pIC50 is 7.80.

For the compound `CCCCC=CCCCCCCCCCCCC(=O)NC(CCCCN)C(=O)O` [C18ω5-L-Lys], in data set [1] (L-Head group stereochemistry), the “% Maximal inhibition” value amounted to 81.3 ± 5.1% and the pIC50 is 7.17. For the same compound, in data set [2] (L-Head group stereochemistry), the pIC50 was under 5.52.

As to `CCCCCCCC/C=C\CCCCCCCC(=O)N[C@H](CCCCN)C(=O)O` [C18ω9-D-Lys, oleoyl D-lysine], in data set [3] (setting [12]), the “% Maximal inhibition” value is on record as 91.0 ^a % and the pIC50 was 7.32. Besides, the “GlyT2 inhibitory activity in words” value in data set [3] is “retains potency”. In data set [4] (D-Head group stereochemistry), the pIC50 was under 5.52. In data set [5], the “Inhibition of GlyT2 Y550L mutant” value is “not inhibited”. The “Inhibition of GlyT2 W563L mutant” value in data set [6] is given as “not inhibited”. In addition, the Metabolic stability entry in data set [8] is “metabolically stable”. For the same compound, the Blood-brain barrier permeability entry in data set [9] is “blood–brain barrier permeable”. For the same compound, in data set [10], the Analgesia entry was “produces analgesia” and the Side effects result is on record as “minimal side effects”.
